In patent publication US11999728B2, “Estrogen receptor modulators” (Recurium IP Holdings, LLC, priority 2020, dated 2024):
pIC50: −log10 of the molar value.

Experiments:
MCF7 = assay: Breast Cancer Cell Proliferation Assay (MCF-7), Cell Titer-Glo; type: cell-based; conditions: Homo sapiens, MCF7 cells, 5 days of compound exposure
In short: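 MCF7 cells in phenol red-free DMEM/F12 with charcoal-stripped FBS exposed 5 days to 10-point dilutions (10–0.000005 μM final), 17β-estradiol as control. Viability by CellTiter-Glo luminescence, background-subtracted and expressed relative to estrogen-only treated cells; day-1 pretreatment wells plated.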

[1] = Pharmacokinetic Determination (Mouse PK); type: in vivo, female CD-1 mice; conditions: female; for AUC(0-t) / clearance / half-life / Vd / bioavailability / Cmax / Tmax: CD-1, plasma; for Vd: read-out: Vdss; for bioavailability: PO 10.0 mg/kg vs IV 3.0 mg/kg; for Kp at 2 h: CD-1, PO 10.0 mg/kg, Brain concentration vs plasma concentration at 2 hours post dosing, read-out: B/P ratio
Experimental: Pharmacokinetic Determination
Grouping female CD-1 mice weighing 20-30 g randomly to three groups; one group was administered with test compound at a dose of 3.0 mg/kg by intravenous injection, the other two groups were administered with test compound at a dose of 10.0 mg/kg by oral. The formulation for IV groups is DMSO/PEG400/30% HP-β-CD (5/20/75) and the formulation for PO groups is 25% HP-β-CD in 25 mM citrate buffer (pH3.0). After administering, blood samples of intravenous injection group were collected at time points of predose, 0.0833, 0.25, 0.5, 1, 2, 4, 8, 12 and 24 h; blood samples of oral group were collected at time points of predose, 0.25, 0.5, 1, 2, 4, 8, 12, and 24 h. Both blood samples and brain samples were collected at 2 hours post dosing for the second PO group. Standard curve was plotted based on concentrations of the samples in a suitable range, the concentrations of test compounds in plasma samples and brain samples were determined by using LC-MS/MS. Pharmacokinetic parameters were calculated according to drug concentration-time curve using a noncompartmental method by WinNonLin (Phoenix™, version 6.1) or other similar software.

Row | Structure (SMILES) | pIC50 (MCF7; MCF7, 120 h) | AUC(0-t) ([1]; IV, 3.0 mg/kg) [nM·h] | clearance ([1]; IV, 3.0 mg/kg) [L/h/kg] | half-life ([1]; IV, 3.0 mg/kg) [h] | Vd ([1]; IV, 3.0 mg/kg) [L/kg] | bioavailability [1] [%] | AUC(0-t) ([1]; PO, 10.0 mg/kg) [nM·h] | Cmax ([1]; PO, 10.0 mg/kg) [µM] | Tmax ([1]; PO, 10.0 mg/kg) [h] | half-life ([1]; PO, 10.0 mg/kg) [h] | Kp at 2 h [1] | pIC50 (MCF7; 120 h)
1 | C[C@@H]1Cc2c([nH]c3ccccc23)[C@@H](c2c(F)cc(N[C@H]3CCN(CCCF)C3)cc2F)N1C12CC(CO)(C1)C2 (single isomer, unassigned) [Compound 70] | ≥ 7.60 | 2460 | 2.17 | 6.51 | 12.2 | 21.4 | 2090 | 0.21 | 2 | 5.25 |  | 
2 | C[C@@H]1Cc2c([nH]c3ccccc23)[C@@H](c2c(F)cc(NC3CN(CCCF)C3)cc2F)N1C12CC(C1)C2 [Compound 1, N-(4-((1R,3R)-2-(bicyclo[1.1.1]pentan-1-yl)-3-methyl-2,3,4,9-tetrahydro-1H-pyrido[3,4-b]indol-1-yl)-3,5-difluorophenyl)-1-(3-fluoropropyl)azetidin-3-amine] |  | 2790 | 1.45 | 18 | 31.9 | 52.4 | 4880 | 0.466 | 2 | 10.5 | 11 | ≥ 7.60
3 | C[C@@H]1Cc2c([nH]c3ccccc23)[C@@H](c2ccc(NC3CN(CCCF)C3)cn2)N1C12CC(C1)C2 [Compound 2, 6-((1S,3R)-2-(bicyclo[1.1.1]pentan-1-yl)-3-methyl-2,3,4,9-tetrahydro-1H-pyrido[3,4-b]indol-1-yl)-N-(1-(3-fluoropropyl)azetidin-3-yl)pyridin-3-amine] |  | 1740 | 3.35 | 8.78 | 31.9 | 43.3 | 2510 | 0.358 | 1 | 7.23 | 2.87 | ≥ 7.60
4 | C[C@@H]1Cc2c([nH]c3ccccc23)[C@@H](c2ccc(NC3CN(CCCF)C3)cc2F)N1C12CC(C1)C2 [Compound 15, N-(4-((1R,3R)-2-(bicyclo[1.1.1]pentan-1-yl)-3-methyl-2,3,4,9-tetrahydro-1H-pyrido[3,4-b]indol-1-yl)-3-fluorophenyl)-1-(3-fluoropropyl)azetidin-3-amine] | ≥ 7.60 | 892 | 6.02 | 10 | 66.4 | 47.3 | 1450 | 0.2 | 1 | 9.2 | 10.8 | 
5 | C[C@@H]1Cc2c([nH]c3ccccc23)[C@@H](c2c(F)cc(N[C@H]3CCN(CCCF)C3)cc2F)N1C12CC(C1)C2 [Compound 19, (S)—N-(4-((1R,3R)-2-(bicyclo[1.1.1]pentan-1-yl)-3-methyl-2,3,4,9-tetrahydro-1H-pyrido[3,4-b]indol-1-yl)-3,5-difluorophenyl)-1-(3-fluoropropyl)pyrrolidin-3-amine] | ≥ 7.60 | 2150 | 2.86 | 6.58 | 23.2 | 69.8 | 5000 | 0.44 | 1 | 8.5 | 12.3 | 
6 | CCCN1CC(Oc2ccc([C@@H]3c4[nH]c5ccccc5c4C[C@@H](C)N3C34CC(C3)C4)cc2)C1 [Compound 39, (1R,3R)-2-(bicyclo[1.1.1]pentan-1-yl)-3-methyl-1-(4-((1-propylazetidin-3-yl)oxy)phenyl)-2,3,4,9-tetrahydro-1H-pyrido[3,4-b]indole] | ≥ 7.60 | 1330 | 5.1 | 5.13 | 16 | 29.6 | 1310 | 0.224 | 0.5 | 3.95 | 11.4 | 
7 | C[C@@H]1Cc2c([nH]c3ccccc23)[C@@H](c2ccc(NC3CN(CCCF)C3)cc2)N1C12CC(C1)C2 [Compound 40, N-(4-((1R,3R)-2-(bicyclo[1.1.1]pentan-1-yl)-3-methyl-2,3,4,9-tetrahydro-1H-pyrido[3,4-b]indol-1-yl)phenyl)-1-(3-fluoropropyl)azetidin-3-amine] | ≥ 7.60 | 1470 | 3.85 | 11.5 | 49.6 | 70.5 | 3460 | 0.261 | 1 |  | 13.5 | 
8 | CCCN1CC[C@H](Nc2ccc([C@@H]3c4[nH]c5ccccc5c4C[C@@H](C)N3C34CC(C3)C4)cc2)C1 [Compound 72, (S)—N-(4-((1R,3R)-2-(bicyclo[1.1.1]pentan-1-yl)-3-methyl-2,3,4,9-tetrahydro-1H-pyrido[3,4-b]indol-1-yl)phenyl)-1-propylpyrrolidin-3-amine] | ≥ 7.60 | 2170 |  |  |  | 51.5 | 3730 | 0.24 | 4 |  | 8.82 | 
9 | C[C@@H]1Cc2c([nH]c3ccccc23)[C@@H](c2ccc(N[C@@H]3CN(CCCF)C[C@H]3F)cc2)N1C12CC(C1)C2 [Compound 75, (3R,4R)—N-(4-((1R,3R)-2-(bicyclo[1.1.1]pentan-1-yl)-3-methyl-2,3,4,9-tetrahydro-1H-pyrido[3,4-b]indol-1-yl)phenyl)-4-fluoro-1-(3-fluoropropyl)pyrrolidin-3-amine] | ≥ 7.60 | 1490 | 3.97 | 7.29 | 17.9 | 59.2 | 2940 | 0.84 | 0.5 | 7.38 | 6.84 | 

The next lines start with results.

Row | pIC50 (MCF7; MCF7, 120 h) | AUC(0-t) ([1]; IV, 3.0 mg/kg) [nM·h] | clearance ([1]; IV, 3.0 mg/kg) [L/h/kg] | half-life ([1]; IV, 3.0 mg/kg) [h] | Vd ([1]; IV, 3.0 mg/kg) [L/kg] | bioavailability [1] [%] | AUC(0-t) ([1]; PO, 10.0 mg/kg) [nM·h] | Cmax ([1]; PO, 10.0 mg/kg) [µM] | Tmax ([1]; PO, 10.0 mg/kg) [h] | half-life ([1]; PO, 10.0 mg/kg) [h] | Kp at 2 h [1] | Structure (SMILES) | pIC50 (MCF7; 120 h)
10 | ≥ 7.60 | 1040 | 5.52 | 7.08 | 42.3 | 31.8 | 1100 | 0.08 | 2 | 5.56 |  | C[C@@H]1Cc2c([nH]c3ccccc23)[C@@H](c2ccc(NC3CN(CCCF)C3)cc2)N1C12CC(CO)(C1)C2 (single isomer, unassigned) [Compound 58] | 
11 | ≥ 7.60 |  |  |  |  |  | 4190 | 0.649 | 2 | 2.34 | 0.23 | C[C@@H]1Cc2c(ccc3[nH]ncc23)[C@@H](c2ccc(NC3CN(CCCF)C3)cn2)N1CC(F)(F)F [AZD9833, reference compound] | 
12 | ≥ 7.60 | 2080 | 3.21 | 3.85 | 11.8 | 39.5 | 2730 | 0.59 | 1 | 3.24 |  | C[C@@H]1Cc2c([nH]c3ccccc23)[C@@H](c2cnc(NC3CN(CCCF)C3)cn2)N1C12CC(C1)C2 [Compound 16, 5-((1S,3R)-2-(bicyclo[1.1.1]pentan-1-yl)-3-methyl-2,3,4,9-tetrahydro-1H-pyrido[3,4-b]indol-1-yl)-N-(1-(3-fluoropropyl)azetidin-3-yl)pyrazin-2-amine] | 
13 | < 6.60 | 590 |  |  |  | 5.03 | 100 | 0.06 | 0.25 | 1.01 |  | C[C@@H]1Cc2c([nH]c3ccccc23)[C@@H](c2ccc(NC3CN(CCCF)C3)nc2)N1C12CC(C1)C2 [Compound 21, 5-((1R,3R)-2-(bicyclo[1.1.1]pentan-1-yl)-3-methyl-2,3,4,9-tetrahydro-1H-pyrido[3,4-b]indol-1-yl)-N-(1-(3-fluoropropyl)azetidin-3-yl)pyridin-2-amine] | 
